{
  "source": "patent US7708799B2",
  "about": "“Dithiocarbamates and phosphite formulations” (priority 2005, dated 2010)",
  "test_system": "Spores of the fungus Mycosphearella sp",
  "test": "Spore germination test on amended water agar plates",
  "format": "cell-based",
  "conditions": "agar amended with mancozeb alone at 100 ppm; 4×10^5 spores; 12 hours incubation",
  "protocol": "The flowable Calcium formulation (named Calciphite) combination plus Mancozeb as described in the above example was tested for its ability to inhibit spore germination as compared to Mancozeb. Water agar plates were prepared and amended with the Calciphite/mancozeb combination (50 ppm) or mancozeb alone (100 ppm). Spores of the fungus Mycosphearella sp at a spore concentration of 4×10^5 were sprayed onto the surface of the plates and incubated for 12 hours after which the plates were assessed for germination.",
  "data": [
    {"substance": "mancozeb", "values": [
      {"measurement": "% spore germination", "result": 81, "unit": "%"}
    ]}
  ]
}
